Measured values from ChEMBL document CHEMBL1806398, “Benzothiazole-based N-(phenylsulfonyl)amides as a novel family of PPARα antagonists” (Bioorg Med Chem Lett, 2011).

Tests used:
[1] = target: T1, Peroxisome proliferator-activated receptor alpha (Homo sapiens) (UniProt Q07869); assay: Agonist activity at PPARalpha ligand binding domain expressed in HEK293 cells co-expressing GAL4 at 150 uM after 18 hrs by dual-luciferase activity based transactivation assay relative to control; type: cell-based
T1 sequence (whole entry): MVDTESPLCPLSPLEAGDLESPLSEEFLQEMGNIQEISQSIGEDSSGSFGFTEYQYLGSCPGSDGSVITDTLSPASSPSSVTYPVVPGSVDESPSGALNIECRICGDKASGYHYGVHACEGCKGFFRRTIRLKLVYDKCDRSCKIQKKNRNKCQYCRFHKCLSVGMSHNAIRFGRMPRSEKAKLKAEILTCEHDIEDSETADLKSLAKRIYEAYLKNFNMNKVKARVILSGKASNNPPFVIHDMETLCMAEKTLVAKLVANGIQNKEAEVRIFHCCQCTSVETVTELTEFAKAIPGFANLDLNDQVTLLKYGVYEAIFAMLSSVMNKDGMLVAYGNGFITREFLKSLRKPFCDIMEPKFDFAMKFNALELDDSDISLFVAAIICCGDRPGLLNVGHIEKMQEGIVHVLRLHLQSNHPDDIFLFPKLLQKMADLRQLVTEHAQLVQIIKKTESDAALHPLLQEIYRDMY

[2] = target: T2, Peroxisome proliferator-activated receptor alpha (Homo sapiens, UniProt Q07869); assay: (§1) Antagonist activity at PPARalpha ligand binding domain expressed in HEK293 cells co-expressing GAL4 assessed as inhibition of GW7647-induced transactivation activity after 18 hrs by dual-luciferase assay; type: cell-based
T2 sequence (Q07869 whole entry): T1 sequence (whole entry)

[3] = target: T1, Peroxisome proliferator-activated receptor alpha (Homo sapiens); assay: Antagonist activity at PPARalpha in human HepG2 cells assessed as inhibition of CPT1A mRNA expression at 150 uM after 48 hrs by RT-PCR analysis relative to control; type: functional, cell-based
[4] = target: T1, Peroxisome proliferator-activated receptor alpha (Homo sapiens); assay: Antagonist activity at PPARalpha in human HepG2 cells assessed as inhibition of GW7647-induced CPT1A mRNA expression at 150 uM after 48 hrs by RT-PCR analysis relative to control; type: functional, cell-based
[5] = target: T2, Peroxisome proliferator-activated receptor alpha; assay: Agonist activity at PPARalpha ligand binding domain expressed in HEK293 cells co-expressing GAL4 after 18 hrs by dual-luciferase activity based transactivation assay; type: cell-based
[6] = target: T1, Peroxisome proliferator-activated receptor alpha (Homo sapiens); assay: Antagonist activity at PPARalpha ligand binding domain expressed in HEK293 cells co-expressing GAL4 assessed as inhibition of transactivation activity at 100 uM after 18 hrs by dual-luciferase assay relative to control; type: cell-based
[7] = target: T1, Peroxisome proliferator-activated receptor alpha (Homo sapiens); assay: Antagonist activity at PPARalpha in human HepG2 cells assessed as inhibition of GW7647-induced CPT1A mRNA expression after 48 hrs by RT-PCR analysis relative to control; type: functional, cell-based
[8] = target: T1, Peroxisome proliferator-activated receptor alpha (Homo sapiens); assay: Antagonist activity at PPARalpha ligand binding domain expressed in HEK293 cells co-expressing GAL4 assessed as inhibition of transactivation activity at 10 uM after 18 hrs by dual-luciferase assay relative to control; type: cell-based
[9] = target: T1, Peroxisome proliferator-activated receptor alpha (Homo sapiens); assay: Antagonist activity at PPARalpha ligand binding domain expressed in HEK293 cells co-expressing GAL4 assessed as inhibition of GW7647-induced transactivation activity at 150 uM after 18 hrs by dual-luciferase assay relative to control; type: cell-based
[10] = target: T1, Peroxisome proliferator-activated receptor alpha (Homo sapiens); assay: Antagonist activity at PPARalpha ligand binding domain expressed in HEK293 cells co-expressing GAL4 assessed as inhibition of GW7647-induced transactivation activity at 50 uM after 18 hrs by dual-luciferase assay relative to control; type: cell-based
[11] = target: T1, Peroxisome proliferator-activated receptor alpha (Homo sapiens); assay: Antagonist activity at PPARalpha ligand binding domain expressed in HEK293 cells co-expressing GAL4 assessed as inhibition of transactivation activity at 150 uM after 18 hrs by dual-luciferase assay relative to control; type: cell-based
[12] = target: T1, Peroxisome proliferator-activated receptor alpha (Homo sapiens); assay: as §1; type: cell-based
[13] = target: T1, Peroxisome proliferator-activated receptor alpha (Homo sapiens); assay: Antagonist activity at PPARalpha ligand binding domain expressed in HEK293 cells co-expressing GAL4 assessed as inhibition of GW7647-induced transactivation activity at 100 uM after 18 hrs by dual-luciferase assay relative to control; type: cell-based
[14] = target: T1, Peroxisome proliferator-activated receptor alpha (Homo sapiens); assay: Antagonist activity at PPARalpha ligand binding domain expressed in HEK293 cells co-expressing GAL4 assessed as inhibition of transactivation activity at 1 uM after 18 hrs by dual-luciferase assay relative to control; type: cell-based
[15] = target: T1, Peroxisome proliferator-activated receptor alpha (Homo sapiens); assay: Antagonist activity at PPARalpha in human HepG2 cells assessed as inhibition of GW7647-induced CPT1A mRNA expression at 0.2 uM after 48 hrs by RT-PCR analysis relative to control; type: functional, cell-based
[16] = target: T1, Peroxisome proliferator-activated receptor alpha (Homo sapiens); assay: Antagonist activity at PPARalpha ligand binding domain expressed in HEK293 cells co-expressing GAL4 assessed as inhibition of transactivation activity at 50 uM after 18 hrs by dual-luciferase assay relative to control; type: cell-based
[17] = target: T1, Peroxisome proliferator-activated receptor alpha (Homo sapiens); assay: Antagonist activity at PPARalpha in human HepG2 cells assessed as inhibition of GW7647-induced CPT1A mRNA expression at 2 uM after 48 hrs by RT-PCR analysis relative to control; type: functional, cell-based
[18] = target: T1, Peroxisome proliferator-activated receptor alpha (Homo sapiens); assay: Antagonist activity at PPARalpha ligand binding domain expressed in HEK293 cells co-expressing GAL4 assessed as inhibition of GW7647-induced transactivation activity at 1 uM after 18 hrs by dual-luciferase assay relative to control; type: cell-based
[19] = target: T1, Peroxisome proliferator-activated receptor alpha (Homo sapiens); assay: Antagonist activity at PPARalpha ligand binding domain expressed in HEK293 cells co-expressing GAL4 assessed as inhibition of GW7647-induced transactivation activity at 10 uM after 18 hrs by dual-luciferase assay relative to control; type: cell-based
[20] = target: T1, Peroxisome proliferator-activated receptor alpha (Homo sapiens); assay: Antagonist activity at PPARalpha in human HepG2 cells assessed as inhibition of GW7647-induced CPT1A mRNA expression at 20 uM after 48 hrs by RT-PCR analysis relative to control; type: functional, cell-based

Row | SMILES | fold change (FC) [1] | IC50 [2] [µM] | fold change (FC) [3] | fold change (FC) [4] | other results
1 | CC(C)(Oc1ccc(Cl)cc1)C(=O)O | 1.6 | – | – | – | –
2 | CCCC(Sc1nc2ccc(OCC)cc2s1)C(=O)NS(=O)(=O)c1ccccc1 (racemic) | 0.05 | 31 | – | – | –
3 | CCCC(Sc1nc2cc(Cl)ccc2s1)C(=O)NS(=O)(=O)c1ccccc1 (racemic) | 0.09 | 22.2 | 0.248 | 0.235 | –
4 | CCCCC(Sc1nc2cc(Cl)ccc2s1)C(=O)NS(=O)(=O)c1ccccc1 (racemic) | 0.01 | 19.9 | 0.005 | 0.003 | –
5 | CCCCCCC(Sc1nc2cc(Cl)ccc2s1)C(=O)NS(=O)(=O)c1ccccc1 (racemic) | 1.49 | – | – | – | EC50 [5]: 50.6 µM
6 | CCOc1ccc2nc(SC(C)C(=O)NS(=O)(=O)c3ccccc3)sc2c1 (racemic) | 0.89 | – | – | – | –

Second part, led by results:

Row | fold change (FC) [1] | IC50 [2] [µM] | fold change (FC) [3] | fold change (FC) [4] | SMILES | other results
7 | 0.1 | 27.9 | – | – | CC(C)C(Sc1nc2cc(Cl)ccc2s1)C(=O)NS(=O)(=O)c1ccccc1 (racemic) | –
8 | 0.01 | 6.5 | 0.005 | 0.005 | O=C(NS(=O)(=O)c1ccccc1)C(Sc1nc2cc(Cl)ccc2s1)c1ccccc1 (racemic) | fold change (FC) [6]: -0.03; inhibition [7]: Dose-dependent effect; fold change (FC) [8]: -0.23; fold change (FC) [9]: -0.09; fold change (FC) [10]: -0.63; fold change (FC) [11]: -0.01; inhibition [12]: Dose-dependent effect; fold change (FC) [13]: -0.1; fold change (FC) [14]: -0.78; fold change (FC) [15]: 3.59; fold change (FC) [16]: -0.03; fold change (FC) [17]: 2.36; fold change (FC) [18]: 3.8; fold change (FC) [19]: 2.14; fold change (FC) [20]: 1.68
